Laboratory results published in patent publication US20060040894A1, “Compositions and methods using hyaluronic acid” (Angiotech International AG, priority 2004, published 2006).

System: hyaluronidase
Assay: Hyaluronic Acid Viscometry Assay (degradation of HA by hyaluronidase)
Format: biochemical
Text: The time for the sample to run through the viscometer was proportional to the viscosity of HA in the sample, which, in turn, was proportional to the molecular weight of the HA. As the enzyme (hyaluronidase) breaks down HA, the molecular weight of the polymer is reduced, the viscosity of the solution drops, and the solution runs through the viscometer more rapidly. Accordingly, shorter run times indicated lower molecular weights of HA (i.e., more breakdown of the HA by hyaluronidase), whereas longer times indicated higher molecular weights of HA (i.e., less breakdown of the HA by hyaluronidase).
0.07% HA solutions were prepared as follows: […] and […] pH 5.5 phosphate buffer (1 M) were combined in a scintillation vial. […] The solutions were allowed to dissolve overnight at 37° C. The pH's were checked and adjusted to 6.0. The viscosity of the solutions was analyzed by measuring the run time through an Ubbelohde PC1 viscometer. 50 μl of hyaluronidase (4.2 mg in 620 ul of water) was added per vial (final concentration approximately 6 units/ml) and incubated overnight with shaking. A viscometer reading was recorded for each solution after overnight incubation.

[1] = 10 mg/ml, without enzyme (Example 4)

| Compound | Time (minutes) for sample to run through viscometer (0 mg/ml (so in the source), with enzyme (Example 4)) | Degradation of HA (% viscosity relative to control t = 0) (10 mg/ml, with hyaluronidase (Example 2)) | Time (minutes) for sample to run through viscometer [1] | Effect on hyaluronidase (viscosity of HA solution versus enzyme control) (Example 2, concentrations of Table 2) | Effect on hyaluronidase (viscosity of HA solution versus enzyme control) (Example 4, 10 mg/ml) | Time (minutes) for sample to run through viscometer (10 mg/ml, with enzyme (Example 4)) |
| --- | --- | --- | --- | --- | --- | --- |
| CC(O)CO (centres unmarked) [Propylene glycol] | 5 min | 65% | 5.85 min | inhibit the action of hyaluronidase | inhibit the action of hyaluronidase |  |
| SPAN 80 |  |  | 5.5 min |  | inhibit the action of hyaluronidase | 4.36 min |
